Experimental data from publication PMC8922281, “Synthesis and In Vitro Biological Evaluation of Quinolinyl Pyrimidines Targeting Type II NADH-Dehydrogenase (NDH-2)” (ACS Infectious Diseases, 2022).
Converted amounts (≈) assume the structure as drawn.

Test system: A. baumannii ATCC19606 resistant mutant
Assay: microbe, parasite or virus in culture
Assay type: cell-based

In the case of `CCOc1cc(Nc2ccc3nc(-c4ccc(F)cc4)cc(N)c3c2)nc(N)n1` [Compound 9a, N^6-(2-Amino-6-ethoxypyrimidin-4-yl)-2-(4-fluorophenyl)quinoline-4,6-diamine], the MIC (Acinetobacter baumannii, ATCC19606, read-out: MIC mutant) is reported as 4 mg/L (≈ 10.2 µM) and the “fold increase of MIC” value (mutant CH5080 vs parent A. baumannii ATCC19606) is reported as 2.
